Data set [1] can be described thus: Metabolic stability in human RBC assessed as retention time of corresponding dihydroanalogue at 7.8 mg/ml by LC-MS analysis. Type of data set: ADME, cell-based. As to conditions: erythrocyte; call rule not given here.
Data set [2] can be described thus: Metabolic stability in human RBC assessed as retention time at 7.8 mg/ml by LC-MS analysis. Type of data set: ADME, cell-based. As to conditions: erythrocyte.
The nature of data set [3]: Half life in CD-1 mouse liver microsomes by LC-FL analysis. The format is ADME.
Data set [4] is described as follows: Cytotoxicity against human MCF7 cells. Type of data set: cell-based.
Data set [5] concerns Plasmodium falciparum. Description: Antiplasmodial activity against Plasmodium falciparum FcB1. The format is functional, organism-based.
The nature of data set [6]: Selectivity index, ratio of CC50 for human MCF7 cells to IC50 for Plasmodium falciparum FcB1. Type of data set: functional.
The nature of data set [7]: Half life in mouse liver microsomes. Type of data set: ADME. For orientation: Liver microsomes are vesicles of endoplasmic reticulum, rich in cytochrome P450 enzymes.
A short description of data set [8]: Drug metabolism in human RBC infected with late stage Plasmodium falciparum assessed as 1-HH formation after 3 hrs. Type of data set: ADME, cell-based. As to conditions: erythrocyte.
Data set [9] can be described thus: Drug metabolism in healthy human RBC assessed as 1-HH formation after 3 hrs. Type of data set: ADME, cell-based. The settings on record: erythrocyte.
The nature of data set [10]: Drug metabolism in CDNB-treated human RBC assessed as 1-HH formation after 4 hrs by HPLC-FL analysis. Type of data set: ADME, cell-based. The settings on record: erythrocyte.
The nature of data set [11]: Metabolic stability in human RBC assessed as increase in extracellular dihydroanalogue metabolite level at 1 mg/ml. The format is ADME, cell-based. The settings on record: erythrocyte, TDE = time-dependent effect.
A short description of data set [12]: Drug metabolism in cytoplasm of human RBC assessed as 1-HH metabolite formation after 3 hrs. The format is ADME. As to conditions: erythrocytes.
Data set [13] is described as follows: Drug metabolism in human RBC assessed as 1-HH formation at 5 mM at 4 degC after 6 hrs by HPLC-FL analysis. As to conditions: erythrocyte, 5000 µM. Type of data set: ADME, cell-based.
Data set [14] is described as follows: Drug metabolism assessed as 1-HH metabolite formation in presence of human haemoglobin. Type of data set: ADME.
Data set [15] in a line: Drug metabolism assessed as 1-HH metabolite formation in presence of haemoglobin. The format is physicochemical.
The nature of data set [16]: Drug metabolism in human phenylhydrazine-treated RBC assessed as 1-HH formation after 3 hrs. The format is ADME, cell-based. As to conditions: erythrocyte.
Data set [17] in a line: Drug metabolism in CD-1 mouse liver microsomes assessed as 1-HH metabolite formation after 10 mins by LC-FL analysis. Type of data set: ADME.
A short description of data set [18]: Drug metabolism assessed as 1-HH metabolite formation after 3 hrs in presence of human haemoglobin. Type of data set: physicochemical.
Data set [19] is described as follows: Drug metabolism assessed as 1-HH metabolite formation after 3 hrs in presence of ghost fraction. The format is physicochemical.
Data set [20] is described as follows: Drug metabolism in human beta-thalassemic RBC assessed as 1-HH formation after 3 hrs. The format is ADME, cell-based. As to conditions: erythrocyte.
Data set [21] is described as follows: Drug metabolism assessed as 1-HH metabolite formation in presence of haemin. The format is physicochemical.
The nature of data set [22]: Drug metabolism in human heat-denaturated RBC. Type of data set: ADME, cell-based. The settings on record: erythrocyte.
Data set [23] in a line: Drug metabolism assessed as 1-HH metabolite formation in presence of haematin. Type of data set: physicochemical.
A short description of data set [24]: Cellular uptake in human RBC assessed as intracellular level at 1 mg/ml measured immediately. Type of data set: ADME, cell-based. As to conditions: erythrocyte.
A short description of data set [25]: Drug metabolism assessed as 1-HH metabolite formation in presence of ferrous ion. Type of data set: physicochemical.
A short description of data set [26]: Drug metabolism in human RBC assessed as 1-HH formation at 5 mM at 37 degC after 6 hrs by HPLC-FL analysis. As to conditions: erythrocyte, 5000 µM. The format is ADME, cell-based.
Data set [27] in a line: Drug metabolism in human RBC assessed as 1-HH formation after 4 hrs by HPLC-FL analysis. Type of data set: ADME, cell-based. The settings on record: erythrocyte.
Data set [28] in a line: Drug metabolism in human NEM-treated RBC assessed as 1-HH formation after 4 hrs by HPLC-FL analysis. Type of data set: ADME, cell-based. As to conditions: erythrocyte.

With `COc1ccc2cc(C3=[N+]([O-])c4ccccc4C3=O)ccc2c1`, the Retention_time is 9.9 min in [1] and 17.4 min in data set [2].

In turn, `O=C1c2cc3c(cc2NC1(O)c1ccc(Cl)cc1)OCO3` (stereo not drawn) gave a half-life in data set [3] of 10 min. In data set [4], this compound had a CC50 of 68 µM. The compound also showed a 50% inhibitory concentration (IC50) in [5] of 1.03 µM. The “Ratio CC50/IC50” value in [6] turned out to be 66.

Consider `COc1ccc2c(c1)C(=O)C(c1ccc(Oc3ccccc3)cc1)=[N+]2[O-]`, for which the results for the Retention_time in [1] and in data set [2] were 11.3 min and 23.5 min, respectively.

`O=C1C(c2ccc(Cl)c(Cl)c2)=[N+]([O-])c2ccccc21`: the Retention_time in data set [1] is on record as 11.2 min; in [2], 20.9 min.

As to `COc1ccc2c(c1)C(=O)C(c1ccc(N(C)C)cc1)=[N+]2[O-]`, the Retention_time in data set [1] worked out at 8.2 min; in data set [2], 14 min. The half-life in data set [7] is 6 min. Also, the half-inhibitory concentration (IC50) in data set [5] was determined as 0.003 µM.

With `COc1ccc2c(c1)C(=O)C(c1ccc(Cl)c(C)c1)=[N+]2[O-]`, the values for the Retention_time in data set [1] and in [2] were 10.4 min and 22.6 min, respectively.

Compound `O=C1C(c2ccc(Cl)cc2)=[N+]([O-])c2cc3c(cc21)OCO3` had a half-life in data set [3] of less than 1 min. Also, the Drug metabolism result was “Active” in data set [8]; “Active” in data set [9]; “Not Active” in data set [10]; “tde” in [11]; “Active” in data set [12]; “Active” in [13]. Besides, the Drug metabolism entry in [16] is given as “Active”; in data set [20] it was “Active”; in data set [26] it was “Active”; in [27], “Active”; in data set [28], “Not Active”. Besides, the Stability result in [14], in data set [15], in data set [17], in data set [18], in data set [19] and in [21] was “Stable” each time. In addition, the Stability entry in data set [22], in data set [23] and in [25] was “Stable” each time. The Retention_time stood at 9.6 min in [1] and 18.2 min in data set [2]. For the same compound, in data set [4], it took 23 µM to reach half-maximal cytotoxicity (CC50). Besides, in data set [24], the Drug uptake result is “Active”. For the same compound, in data set [6], the “Ratio CC50/IC50” value came out at 264.

Take `CCN(CC)CCCC(C)Nc1ccnc2cc(Cl)ccc12` (stereo not drawn) [CHLOROQUINE]: it took 19 µM to reach half-maximal cytotoxicity in [4] (CC50).

For orientation: half-life means the time in which the quantity being followed falls by half. A higher half-life goes with slow loss. The CC50 is the concentration at which the toxic effect on the cells reaches its halfway point. A high value points to better tolerance by the cells. A word on the IC50: it is the concentration needed to halve the response being measured. A low value points to inhibition by little substance.
